Key:
[1] = tested on: TNF production by macrophage; settings: TLR agonist stimulation, dose dependant; cited from earlier work
MNK1 = MNK1 (Homo sapiens, UniProt Q9BUB5); test: MNK1 enzymatic assay; type: biochemical
MNK2 = MNK2 (Homo sapiens, UniProt Q9HBH9); test: MNK2 enzymatic assay; type: biochemical
[2] = tested on: eIF4e phosphorylation in Hela cell line; test: eIF4e phosphorylation inhibition in Hela cell line; type: cell-based; settings: Homo sapiens, cellular

MNK2, sequence (Q9HBH9 whole entry): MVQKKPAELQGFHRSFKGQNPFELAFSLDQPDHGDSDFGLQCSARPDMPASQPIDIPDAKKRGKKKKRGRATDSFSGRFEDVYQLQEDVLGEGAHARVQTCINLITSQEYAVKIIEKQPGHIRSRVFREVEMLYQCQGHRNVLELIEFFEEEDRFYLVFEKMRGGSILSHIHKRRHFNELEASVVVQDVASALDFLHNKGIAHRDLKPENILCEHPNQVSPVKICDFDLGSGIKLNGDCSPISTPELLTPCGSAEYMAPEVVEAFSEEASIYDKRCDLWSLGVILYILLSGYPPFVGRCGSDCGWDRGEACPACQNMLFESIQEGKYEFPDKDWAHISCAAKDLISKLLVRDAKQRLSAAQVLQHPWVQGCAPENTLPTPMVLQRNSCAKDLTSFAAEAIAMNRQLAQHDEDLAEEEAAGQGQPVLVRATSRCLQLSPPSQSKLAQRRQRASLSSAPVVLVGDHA
MNK1, sequence (Q9BUB5 whole entry): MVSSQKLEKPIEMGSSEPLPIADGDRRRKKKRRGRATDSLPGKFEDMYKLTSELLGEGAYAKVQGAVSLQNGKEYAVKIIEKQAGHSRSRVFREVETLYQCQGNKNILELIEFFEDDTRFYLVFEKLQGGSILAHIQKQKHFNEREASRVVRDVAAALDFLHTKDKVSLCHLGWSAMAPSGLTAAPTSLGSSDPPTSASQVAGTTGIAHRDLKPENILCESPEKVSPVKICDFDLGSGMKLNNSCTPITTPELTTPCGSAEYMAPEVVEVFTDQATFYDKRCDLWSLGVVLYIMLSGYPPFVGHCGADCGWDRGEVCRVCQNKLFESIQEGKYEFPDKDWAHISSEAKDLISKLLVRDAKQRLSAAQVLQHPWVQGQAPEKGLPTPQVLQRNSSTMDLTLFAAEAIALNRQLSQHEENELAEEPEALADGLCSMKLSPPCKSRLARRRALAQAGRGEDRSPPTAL

SMILES | production / release of TNF [1] | IC50 (MNK1) | IC50 (MNK2) | IC50 [2] | melting point
Nc1ncnc2n[nH]c(Nc3ccc(F)cc3)c12 [CGP57380] | inhibits |  |  |  | 
O=C(c1ccc(-c2ccc3ncc(C#Cc4ccnc5[nH]ccc45)n3c2)cc1)N1CCNCC1 [Example 110, (4-(3-((1H-pyrrolo[2,3-b]pyridin-4-yl)ethynyl)imidazo[1,2-a]pyridin-6-yl)phenyl)(piperazin-1-yl)methanone] |  | < 0.5 µM | < 0.5 µM | < 5 µM | 242 to 245 °C
O=C(c1ccc(-c2ccn3ncc(C#Cc4ccncc4)c3n2)cc1)N1CCOCC1 [Example 114, morpholino(4-(3-(pyridin-4-ylethynyl)pyrazolo[1,5-a]pyrimidin-5-yl)phenyl)methanone] |  | < 0.5 µM | < 0.5 µM | < 5 µM | 206 to 209 °C
O=C(c1ccc(-c2ccn3ncc(C#Cc4ccncc4)c3n2)cc1)N1CCNCC1 [Example 115, piperazin-1-yl(4-(3-(pyridin-4-ylethynyl)pyrazolo[1,5-a]pyrimidin-5-yl)phenyl)methanone] |  | < 0.5 µM | < 0.5 µM | < 5 µM | 120 to 136 °C
Cc1cnccc1C#Cc1cnn2ccc(-c3ccc(C(=O)N4CCOCC4)cc3)nc12 [Example 116, (4-(3-((3-methylpyridin-4-yl)ethynyl)pyrazolo[1,5-a]pyrimidin-5-yl)phenyl)(morpholino)methanone] |  | < 0.5 µM | < 0.5 µM | < 5 µM | 233 to 236 °C
Nc1ncc(C#Cc2cnc3ccc(-c4ccc(C(=O)N5CCOCC5)cc4)nn23)s1 [Example 121, (4-(3-((2-aminothiazol-5-yl)ethynyl)imidazo[1,2-b]pyridazin-6-yl)phenyl) (morpholino)methanone] |  | < 0.5 µM | < 0.5 µM | < 5 µM | 245 to 254 °C

Source: patent publication US10544149B2, “Bicyclic alkyne derivatives and uses thereof” (Agency for Science, Technology and Research, priority 2013, dated 2020)
